We go through 17 molecules from US9328106B2, “Cyclic ether pyrazol-4-yl-heterocyclyl-carboxamide compounds and methods of use” (Genentech, Inc., priority 2012, dated 2016).

Bounds are passed on as bounds.

Broadly, the IC20 is the point of the concentration-response curve where the effect stands at 20%. In general, Ki refers to the equilibrium dissociation constant of an inhibitor or competing ligand from its target. For orientation: IC50 means the concentration needed to halve the response being measured. By EC50 is commonly meant the midpoint of the concentration-response curve.

The target in one data set is hERG potassium channel (Homo sapiens (Human), UniProt Q12809). Nature of the data set: hERG assay (IC50), automated PatchXpress in hERG-expressing HEK-293 cells. Format: cell-based. Particulars: 0.01-100 μM, 5 minutes after adding test article; for IC20 at 5 min: human, HEK-293 cells that express hERG.
Chain of hERG potassium channel (Q12809 whole entry): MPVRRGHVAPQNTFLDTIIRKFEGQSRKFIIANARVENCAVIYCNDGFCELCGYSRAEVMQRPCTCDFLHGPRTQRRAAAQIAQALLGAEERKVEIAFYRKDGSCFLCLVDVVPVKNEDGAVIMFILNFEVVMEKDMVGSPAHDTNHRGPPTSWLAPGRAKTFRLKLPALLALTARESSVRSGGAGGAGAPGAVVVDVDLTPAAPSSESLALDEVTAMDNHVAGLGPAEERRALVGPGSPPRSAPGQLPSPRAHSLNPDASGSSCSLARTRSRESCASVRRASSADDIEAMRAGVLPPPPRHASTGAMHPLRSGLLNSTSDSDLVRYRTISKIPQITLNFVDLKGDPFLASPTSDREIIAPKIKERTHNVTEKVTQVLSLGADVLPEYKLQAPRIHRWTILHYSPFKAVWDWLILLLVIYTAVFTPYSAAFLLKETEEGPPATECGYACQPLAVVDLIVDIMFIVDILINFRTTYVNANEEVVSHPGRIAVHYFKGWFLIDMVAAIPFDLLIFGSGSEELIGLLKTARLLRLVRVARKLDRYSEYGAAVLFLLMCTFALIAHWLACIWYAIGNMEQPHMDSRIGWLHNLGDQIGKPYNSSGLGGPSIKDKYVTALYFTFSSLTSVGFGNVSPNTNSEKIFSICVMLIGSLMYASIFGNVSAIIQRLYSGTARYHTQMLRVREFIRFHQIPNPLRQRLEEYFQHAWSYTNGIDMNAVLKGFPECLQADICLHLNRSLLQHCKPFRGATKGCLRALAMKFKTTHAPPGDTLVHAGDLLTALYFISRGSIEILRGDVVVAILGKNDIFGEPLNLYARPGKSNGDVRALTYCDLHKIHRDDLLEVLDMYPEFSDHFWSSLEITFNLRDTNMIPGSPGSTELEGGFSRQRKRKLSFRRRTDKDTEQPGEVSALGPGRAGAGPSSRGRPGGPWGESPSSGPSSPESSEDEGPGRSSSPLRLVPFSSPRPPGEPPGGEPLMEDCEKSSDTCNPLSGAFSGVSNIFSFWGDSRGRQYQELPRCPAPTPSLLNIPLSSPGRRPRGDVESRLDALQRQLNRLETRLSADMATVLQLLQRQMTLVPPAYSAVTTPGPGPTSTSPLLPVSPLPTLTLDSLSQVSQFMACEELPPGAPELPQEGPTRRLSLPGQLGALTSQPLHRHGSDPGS
In a further data set the target is PIM1 (Homo sapiens (Human), UniProt P11309). Description: biochemical. Format: biochemical. As to conditions: 20 pM PIM1, 1 μM FAM-peptide, 10 μM ATP, 90 minutes at room temperature; read-out: PIM1 LC3K (KI).
Chain of PIM1 (P11309 whole entry): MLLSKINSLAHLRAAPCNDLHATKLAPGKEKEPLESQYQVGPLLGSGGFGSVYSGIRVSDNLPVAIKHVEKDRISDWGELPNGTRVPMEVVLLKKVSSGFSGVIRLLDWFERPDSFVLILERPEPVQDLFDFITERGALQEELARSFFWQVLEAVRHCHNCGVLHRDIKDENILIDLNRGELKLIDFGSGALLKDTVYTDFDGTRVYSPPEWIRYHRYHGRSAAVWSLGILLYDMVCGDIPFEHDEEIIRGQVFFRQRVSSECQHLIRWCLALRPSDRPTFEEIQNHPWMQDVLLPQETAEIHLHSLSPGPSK
The test system of the next data set is BaF3 PIM1 cells. Description: In vitro cell proliferation, BaF3 transfected with PIM1.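 Also: murine IL-3-dependent pro-B BaF3 cells transfected with PIM1, compound exposure overnight at 37 °C under 5% CO2, viability read as luminescence.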 The class given is cell-based, murine. Particulars: Mus musculus, BaF3, read-out: Prolif BaF3 PIM1 (IC50), BaF3 PIM1 cells, incubated overnight, CELL TITER GLO. In general terms: In ATP-based viability assays light output follows the ATP content of the culture.
For data set [1], the system named is MM1.S (multiple myeloma) cells. Description: In vitro cell proliferation, MM1.S multiple myeloma cells.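 Also: cells cultured in RPMI with 10% FBS and 2 mM L-Glutamine, seeded in 384-well plates, exposed to compound, cell viability measured by luminescence after CellTiter-Glo addition.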 Format: cell-based. As to conditions: Homo sapiens, MM1.S, 72 h, MM1.S cells, 72 hours, CELL TITER GLO; read-out: Prolif MM1S ATP (EC50).
Method: BaF3 parental line was obtained from the DSMZ repository. […] Media for BaF3 parental line contained RPMI, 10% FBS, 2 mM L-Glutamine, 2 ng/mL mIL-3. Media for BaF3 PIM1 & 2 lines contained RPMI, 10% FBS, 2 mM L-Glutamine, 250 μg/mL. Media for MM1.S (multiple myeloma cells) line contained RPMI, 10% FBS, 2 mM L-Glutamine.
BaF3, a murine interleukin-3 dependent pro-B cell line, parental cells, BaF3 PIM1 cells, BaF3 PIM2 cells, and MM1.S (multiple myeloma) cells were seeded at 2 k/well, 5 k/well, 5 k/well, and 10 k/well respectively, in a 384-well plate, at 45 μL/well. Test compound was added at 5 μL/well. BaF3 cells (parental and transfected) were incubated overnight, while MM1.S cells were incubated for 72 hours at 37° C., 5% CO2. CELL TITER GLO® Reagent (Promega) was added at 50 μL/well, the plates were incubated for 30 minutes, and their luminescence read on an HT Analyst. IC50/EC50 values for the test compound were calculated.
In another data set the test system is BaF3 parental cells. Description: In vitro cell proliferation, BaF3 parental line + IL3.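 Also: BaF3 parental cells are murine IL-3 dependent pro-B cells grown with 2 ng/mL mIL-3, 384-well format, viability read by luminescence.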 The class given is cell-based, murine. As to conditions: Mus musculus, BaF3, BaF3 parental, mIL-3, incubated overnight, CELL TITER GLO; read-out: Prolif BaF3 IL3 (IC50).

Method for hERG potassium channel: The in vitro potential for hERG potassium channel current inhibition was assessed according to the study site standard procedures (ChanTest, Cleveland, Ohio). In brief, hERG inhibition (% max) was determined in hERG-expressing HEK-293 cells (n=2/concentration) using the automated PatchXpress 7000A system (Molecular Devices, Sunnyvale, Calif.) for 5 minutes after adding the test article.

`Cn1ncc(NC(=O)c2nc(-c3c(F)cccc3F)sc2N)c1N1CC[C@@H](N)[C@H](F)CC1` [No. 139 of US 2013/0079321, 5-amino-N-(5-((4R,5R)-4-amino-5-fluoroazepan-1-yl)-1-methyl-1H-pyrazol-4-yl)-2-(2,6-difluorophenyl)thiazole-4-carboxamide, reference compound]: the IC20 at 5 min against hERG potassium channel turned out to be 700 nM.
Turning to `Cn1ncc(NC(=O)c2nc(-c3c(F)cccc3F)sc2N)c1[C@@H]1CC[C@@H](N)[C@H](F)CO1` [Example 177, 5-Amino-N-[5-[(2S,5R,6S)-5-amino-6-fluoro-oxepan-2-yl]-1-methyl-pyrazol-4-yl]-2-(2,6-difluorophenyl)thiazole-4-carboxamide], the Ki at PIM1 stood at 0.00342 nM. On hERG potassium channel, the IC50 was 16 µM and the IC20 at 5 min came to 3900 nM.
As for `CO[C@H]1CO[C@H](c2c(NC(=O)c3nc(-c4c(F)cccc4F)sc3N)cnn2C)CC[C@H]1N` [Example 154, 5-Amino-N-[5-[(2S,5R,6R)-5-amino-6-methoxy-oxepan-2-yl]-1-methyl-pyrazol-4-yl]-2-(2,6-difluorophenyl)thiazole-4-carboxamide], the Ki on PIM1 was 0.008 nM. At hERG potassium channel, this molecule had an IC50 of 9.1 µM and an IC20 at 5 min of 1600 nM.
For `Cc1[nH]nc(-c2nc(C(=O)Nc3cnn(C)c3[C@@H]3CC[C@@H](N)[C@H](F)CO3)cs2)c1C` [Example 372, N-(5-((2S,5R,6S)-5-amino-6-fluorooxepan-2-yl)-1-methyl-1H-pyrazol-4-yl)-2-(4,5-dimethyl-1H-pyrazol-3-yl)thiazole-4-carboxamide], the IC50 in the data set with BaF3 PIM1 cells amounted to 602 nM; in the data set on BaF3 parental cells, 20.5 µM. In data set [1], the EC50 worked out at 1600 nM. On PIM1, the Ki is 0.064 nM.
The matching figures for `Cn1ncc(NC(=O)c2csc(-c3ccccc3F)n2)c1[C@@H]1CC[C@@H](N)[C@H](F)CO1` [Example 322, N-(5-((2S,5R,6S)-5-amino-6-fluorooxepan-2-yl)-1-methyl-1H-pyrazol-4-yl)-2-(2-fluorophenyl)thiazole-4-carboxamide]: 113 nM, 6.3 µM, 1500 nM and 0.072 nM.
The corresponding values for `COC1(c2cc(F)c(-c3nc(C(=O)Nc4cnn(C)c4[C@@H]4CC[C@@H](N)[C@H](F)CO4)cs3)c(F)c2)COC1` [Example 339, N-(5-((2S,5R,6S)-5-amino-6-fluorooxepan-2-yl)-1-methyl-1H-pyrazol-4-yl)-2-(2,6-difluoro-4-(3-methoxyoxetan-3-yl)phenyl)thiazole-4-carboxamide] are 52.2 nM, more than 25 µM, 1900 nM and 0.014 nM.
Consider `Cn1ncc(NC(=O)c2nc(-c3c(F)cccc3F)sc2N)c1[C@H]1CC[C@@H](N)C(F)CO1` (stereo in doubt) [Example 148, 5-Amino-N-[5-[5-amino-6-fluoro-oxepan-2-yl]-1-methyl-pyrazol-4-yl]-2-(2,6-difluorophenyl)thiazole-4-carboxamide], for which the IC50 was 1600 nM with BaF3 PIM1 cells and 25 µM with BaF3 parental cells. For the same molecule, the concentration for a half-maximal effect (EC50) in data set [1] was found to be 7700 nM. At PIM1, the Ki was 0.079 nM.
The matching figures for `CN(C)C(=O)c1cc(F)c(-c2nc(C(=O)Nc3cnn(C)c3[C@@H]3CC[C@@H](N)[C@H](F)CO3)cs2)c(F)c1` [Example 354, N-(5-((2S,5R,6S)-5-amino-6-fluorooxepan-2-yl)-1-methyl-1H-pyrazol-4-yl)-2-(4-(dimethylcarbamoyl)-2,6-difluorophenyl)thiazole-4-carboxamide]: 3400 nM, 7.3 µM, 5100 nM and 0.083 nM.
As for `Cn1ncc(NC(=O)c2nc(-c3ccccc3F)sc2N)c1[C@@H]1CC[C@@H](N)[C@H](F)CO1` [Example 317, 5-amino-N-(5-((2S,5R,6S)-5-amino-6-fluorooxepan-2-yl)-1-methyl-1H-pyrazol-4-yl)-2-(2-fluorophenyl)thiazole-4-carboxamide], the IC50 was 15.2 nM in the data set with BaF3 PIM1 cells and 7.9 µM in the data set on BaF3 parental cells. For the same molecule, in data set [1], the EC50 is 34.5 nM. The Ki at PIM1 worked out at 0.00509 nM.
Turning to `Cn1ncc(NC(=O)c2csc(-c3c(F)cccc3F)n2)c1[C@H]1CC[C@H](N)[C@H](O)CO1` [Example 351, N-(5-((2R,5S,6S)-5-amino-6-hydroxyoxepan-2-yl)-1-methyl-1H-pyrazol-4-yl)-2-(2,6-difluorophenyl)thiazole-4-carboxamide], the IC50 was found to be 621 nM in the data set with BaF3 PIM1 cells and 9.9 µM in the data set with BaF3 parental cells. Also, the EC50 in data set [1] is 520 nM. For the same molecule, the inhibition constant (Ki) at PIM1 was 0.076 nM.
For the molecule `COc1ccc(F)c(-c2nc(C(=O)Nc3cnn(C)c3[C@@H]3CC[C@@H](N)[C@H](OC)CO3)cs2)c1F` [Example 368, N-(5-((2S,5R,6S)-5-amino-6-methoxyoxepan-2-yl)-1-methyl-1H-pyrazol-4-yl)-2-(2,6-difluoro-3-methoxyphenyl)thiazole-4-carboxamide], the values for the IC50 with BaF3 PIM1 cells and in the data set on BaF3 parental cells were 100 nM and 1.9 µM, respectively. Moreover, the EC50 in data set [1] is 2400 nM. For the same molecule, the Ki at PIM1 worked out at 0.03 nM.
The corresponding values for `Cc1cccc(-c2nc(C(=O)Nc3cnn(C)c3[C@@H]3CC[C@@H](N)[C@H](F)CO3)cs2)c1F` [Example 361, N-[5-[(2S,5R,6S)-5-amino-6-fluoro-oxepan-2-yl]-1-methyl-pyrazol-4-yl]-2-(2-fluoro-3-methyl-phenyl)thiazole-4-carboxamide] are 250 nM, 2.8 µM, 452 nM and 0.068 nM.
The matching figures for `Cn1ncc(NC(=O)c2csc(-c3ccccc3)n2)c1[C@@H]1CC[C@@H](N)[C@H](F)CO1` [Example 327, N-(5-((2S,5R,6S)-5-amino-6-fluorooxepan-2-yl)-1-methyl-1H-pyrazol-4-yl)-2-phenylthiazole-4-carboxamide]: 176 nM, 16.8 µM, 648 nM and 0.021 nM.
The matching figures for `Cn1ncc(NC(=O)c2csc(-c3c(F)cc(C4CC4)cc3F)n2)c1[C@@H]1CC[C@@H](N)[C@H](F)CO1` [Example 358, N-(5-((2S,5R,6S)-5-amino-6-fluorooxepan-2-yl)-1-methyl-1H-pyrazol-4-yl)-2-(4-cyclopropyl-2,6-difluorophenyl)thiazole-4-carboxamide]: 68.2 nM, 4.1 µM, 938 nM and 0.009 nM.
On to `Cn1ncc(NC(=O)c2csc(-c3c(F)cc([C@H]4CCCO4)cc3F)n2)c1[C@@H]1CC[C@@H](N)[C@H](F)CO1` (single isomer, unassigned) [Example 380], for which the half-maximal inhibitory concentration (IC50) in the data set with BaF3 PIM1 cells is 37.2 nM; in the data set with BaF3 parental cells, 12.2 µM. Further, the concentration for a half-maximal effect (EC50) in data set [1] was determined as 1700 nM. Also, at PIM1, the Ki came to 0.071 nM.
The corresponding values for `C[C@@H](O)c1ccc(-c2nc(C(=O)Nc3cnn(C)c3[C@@H]3CC[C@@H](N)[C@H](F)CO3)cs2)c(F)c1F` (single isomer, unassigned) [Example 366] are 302 nM, 10.3 µM, 1700 nM and 0.14 nM.
The matching figures for `Cn1ncc(NC(=O)c2nc(-c3ccccc3)sc2N)c1[C@@H]1CC[C@@H](N)[C@H](F)CO1` [Example 320, 5-amino-N-(5-((2S,5R,6S)-5-amino-6-fluorooxepan-2-yl)-1-methyl-1H-pyrazol-4-yl)-2-phenylthiazole-4-carboxamide]: 24.4 nM, more than 25 µM, 187 nM and 0.036 nM.
